Laboratory results as given in patent US8653087B2, “Pyrido [5, 4-D] pyrimidines as cell proliferation inhibitors” (Boehringer Ingelheim International GmbH, priority 2008, dated 2014).
pIC50: −log10 of the molar value.

target: B-Raf (V600E)-kinase (Homo sapiens (Human), UniProt P15056, V600E); assay: Kinase test B-RAF (V600E); type: biochemical; conditions: B-RAF (V600E) kinase test, 250 μM ATP
Procedure, shortened: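 B-Raf (V600E) (0.5 ng) preincubated with compound 24 h at RT (5% DMSO), then reacted 60 min at RT with 250 μM ATP and biotinylated MEK1 as substrate. Phospho-MEK (Ser217/221) captured on streptavidin and detected by europium time-resolved fluorescence; IC50 from dose-response curves.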

Sequence of B-Raf (V600E)-kinase (P15056 whole entry V600E): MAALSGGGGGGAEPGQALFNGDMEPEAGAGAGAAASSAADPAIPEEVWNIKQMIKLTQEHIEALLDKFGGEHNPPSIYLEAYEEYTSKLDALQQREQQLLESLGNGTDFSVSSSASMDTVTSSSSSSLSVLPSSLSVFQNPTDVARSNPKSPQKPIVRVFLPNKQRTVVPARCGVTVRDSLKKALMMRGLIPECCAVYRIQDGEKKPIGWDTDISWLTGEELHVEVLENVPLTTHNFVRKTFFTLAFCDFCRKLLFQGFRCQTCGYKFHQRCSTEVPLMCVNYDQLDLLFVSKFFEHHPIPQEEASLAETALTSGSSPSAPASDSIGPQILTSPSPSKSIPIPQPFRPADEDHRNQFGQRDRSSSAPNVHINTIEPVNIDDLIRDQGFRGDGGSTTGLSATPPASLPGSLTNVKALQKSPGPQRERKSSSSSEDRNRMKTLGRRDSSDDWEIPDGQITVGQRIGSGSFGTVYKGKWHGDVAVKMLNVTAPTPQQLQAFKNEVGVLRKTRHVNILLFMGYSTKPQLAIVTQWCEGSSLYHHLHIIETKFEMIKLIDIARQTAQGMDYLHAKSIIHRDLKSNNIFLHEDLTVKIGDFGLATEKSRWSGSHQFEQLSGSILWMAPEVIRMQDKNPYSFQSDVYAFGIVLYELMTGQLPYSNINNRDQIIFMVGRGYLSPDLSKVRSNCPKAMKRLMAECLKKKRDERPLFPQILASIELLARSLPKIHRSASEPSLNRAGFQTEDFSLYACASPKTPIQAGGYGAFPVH

pIC50 | Structure (SMILES)
6.97 | COCCN1CCN(c2ncc3ncnc(Nc4cc(C(=O)Nc5cc(C(F)(F)F)ccc5N5CCOCC5)ccc4C)c3n2)CC1 [III-534]
8.40 | COCCN1CCN(c2ncc3ncnc(Nc4cc(C(=O)Nc5cc(OC)cc(C(F)(F)F)c5)ccc4C)c3n2)CC1 [III-535]
8.52 | COc1ccc(NC(=O)c2ccc(C)c(Nc3ncnc4cnc(N(C)CC5CCCO5)nc34)c2)cc1C(F)(F)F (stereo not drawn) [III-543]
9.00 | COc1ccc(NC(=O)c2ccc(C)c(Nc3ncnc4cnc(NCC5CCCCO5)nc34)c2)cc1C(F)(F)F (stereo not drawn) [III-544]
8.70 | COC[C@@H]1CCCN1c1ncc2ncnc(Nc3cc(C(=O)Nc4ccc(OC)c(C(F)(F)F)c4)ccc3C)c2n1 [III-545]
8.10 | COc1ccc(NC(=O)c2ccc(C)c(Nc3ncnc4cnc(-n5cnc(C)c5)nc34)c2)cc1C(F)(F)F [III-549]
9.00 | COc1ccc(NC(=O)c2ccc(C)c(Nc3ncnc4cnc(N5CCCOCC5)nc34)c2)cc1C(F)(F)F [III-551]
8.52 | COc1ccc(NC(=O)c2ccc(C)c(Nc3ncnc4cnc(N5CCN(CC6CCCN(C)C6)CC5)nc34)c2)cc1C(F)(F)F (stereo not drawn) [III-554]
7.85 | COc1ccc(NC(=O)c2ccc(C)c(Nc3ncnc4cnc(N5CCC(N6C[C@@H](C)O[C@@H](C)C6)CC5)nc34)c2)cc1C(F)(F)F [III-559]
8.70 | COc1ncc2ncnc(Nc3cc(C(=O)Nc4ccc(OC)c(C(F)(F)F)c4)ccc3C)c2n1 [III-569]
8.70 | COc1ncc2ncnc(Nc3cc(C(=O)Nc4cc(N(C)CCN(C)C)cc(C(F)(F)F)c4)ccc3C)c2n1 [III-571]
7.49 | Cc1ccc(C(=O)Nc2cc(C(C)(C)C)on2)cc1N(C)c1ncnc2cnc(N3CC[C@H](F)C3)nc12 [III-583]
6.71 | COCCN1CCN(c2ncc3ncnc(N(C)c4cc(C(=O)Nc5ccc(OC)c(C(F)(F)F)c5)ccc4C)c3n2)CC1 [III-586]
9.00 | Cc1ccc(C(=O)Nc2cc(C(C)(C)C)nn2C)cc1Oc1ncnc2cnc(N3CCOCC3)nc12 [III-591]
9.00 | Cc1ccc(C(=O)Nc2ccnc(C(C)(C)C)c2)cc1Nc1ncnc2cnc(NC3CCN(C)CC3)nc12 [III-595]
8.70 | Cc1ccc(C(=O)Nc2cc(C(C)(C)C)on2)cc1Nc1ncnc2cnc(N(C)C3CC(N4CCN(C)CC4)C3)nc12 (stereo not drawn) [III-596]
8.52 | Cc1ccc(C(=O)Nc2cc(C(C)(C)C)n[nH]2)cc1Nc1ncnc2cnc(N3CCC(CN4CCCC4)CC3)nc12 [III-600]
8.52 | Cc1ccc(C(=O)Nc2ccnc(C(C)(C)C)c2)cc1Nc1ncnc2cnc(N3CCC(CN4CCCC4)CC3)nc12 [III-604]
8.52 | Cc1ccc(C(=O)Nc2ccnc(C(C)(C)C)c2)cc1Nc1ncnc2cnc(N3CCC(CCN(C)C)CC3)nc12 [III-606]
9.00 | Cc1ccc(C(=O)Nc2ccc3c(c2)OC(F)(F)C(F)(F)O3)cc1Nc1ncnc2cnc(N3CCN(CCN(C)C)CC3)nc12 [III-607]
8.15 | COCCN1CCN(c2ncc3ncnc(Nc4cc(C(=O)Nc5ccc6c(c5)OC(F)(F)OC6(F)F)ccc4C)c3n2)CC1 [III-608]

Continued, molecule first:

Structure (SMILES) | pIC50
Cc1ccc(C(=O)Nc2cc(CN3CCCC3)c(Cl)c(C(F)(F)F)c2)cc1Nc1ncnc2cnc(N3CCOCC3)nc12 [III-528] | 8.70
Cc1ccc(C(=O)Nc2cc(OCCN3CCOCC3)cc(C(F)(F)F)c2)cc1Nc1ncnc2cnc(N3CCOCC3)nc12 [III-529] | 8.52
Cc1ccc(C(=O)Nc2cc(-n3ccnc3)cc(C(F)(F)F)c2)cc1Nc1ncnc2cnc(N3CCOCC3)nc12 [III-530] | 6.24
COCCN1CCN(c2ncc3ncnc(Nc4cc(C(=O)Nc5cc(C(F)(F)F)ccc5C#N)ccc4C)c3n2)CC1 [III-531] | 7.89
COCCN1CCN(c2ncc3ncnc(Nc4cc(C(=O)Nc5ccc(C#N)c(C(F)(F)F)c5)ccc4C)c3n2)CC1 [III-532] | 8.70
COCCN1CCN(c2ncc3ncnc(Nc4cc(C(=O)Nc5cc(C(F)(F)F)ccc5Cl)ccc4C)c3n2)CC1 [III-533] | 8.22
COCCN1CCN(c2ncc3ncnc(Nc4cc(C(=O)Nc5ccc(F)c(C(F)(F)F)c5)ccc4C)c3n2)CC1 [III-536] | 9.00
COCCN1CCN(c2ncc3ncnc(Nc4cc(C(=O)Nc5cc(C(F)(F)F)ccc5-n5ccnn5)ccc4C)c3n2)CC1 [III-537] | 7.92
COCCN1CCN(c2ncc3ncnc(Nc4cc(C(=O)Nc5cc(C(F)(F)F)ccc5-n5cccn5)ccc4C)c3n2)CC1 [III-538] | 8.00
COc1c(CN2CCCC2)cc(C(F)(F)F)cc1NC(=O)c1ccc(C)c(Nc2ncnc3cnc(N4CCOCC4)nc23)c1 [III-539] | 8.70
COc1c(CNC(C)C)cc(C(F)(F)F)cc1NC(=O)c1ccc(C)c(Nc2ncnc3cnc(N4CCOCC4)nc23)c1 [III-540] | 8.30
COc1c(CN2CCCC2)cc(C(F)(F)F)cc1NC(=O)c1ccc(C)c(Nc2ncnc3cnc(N4CC[C@H](F)C4)nc23)c1 [III-541] | 7.82
COc1c(CNC(C)C)cc(C(F)(F)F)cc1NC(=O)c1ccc(C)c(Nc2ncnc3cnc(N4CC[C@H](F)C4)nc23)c1 [III-542] | 7.92
COc1ccc(NC(=O)c2ccc(C)c(Nc3ncnc4cnc(N5CCC[C@H]5CO)nc34)c2)cc1C(F)(F)F [III-546] | 8.40
COc1ccc(NC(=O)c2ccc(C)c(Nc3ncnc4cnc(NCC(C)C)nc34)c2)cc1C(F)(F)F [III-547] | > 9.00
COc1ccc(NC(=O)c2ccc(C)c(Nc3ncnc4cnc(N(C)C5CCOC5)nc34)c2)cc1C(F)(F)F (stereo not drawn) [III-548] | 8.52
COc1ccc(NC(=O)c2ccc(C)c(Nc3ncnc4cnc(N5C[C@@H](C)O[C@@H](C)C5)nc34)c2)cc1C(F)(F)F [III-550] | 8.40
COc1ccc(NC(=O)c2ccc(C)c(Nc3ncnc4cnc(N5CCN(CCN6CCOCC6)CC5)nc34)c2)cc1C(F)(F)F [III-552] | 7.77
COc1ccc(NC(=O)c2ccc(C)c(Nc3ncnc4cnc(N5CCN(CCCN6CCCC6)CC5)nc34)c2)cc1C(F)(F)F [III-553] | 8.70
COc1ccc(NC(=O)c2ccc(C)c(Nc3ncnc4cnc(N5CCN6CCCCC6C5)nc34)c2)cc1C(F)(F)F (stereo not drawn) [III-555] | 7.74
COc1ccc(NC(=O)c2ccc(C)c(Nc3ncnc4cnc(N5CCC(N6CCCCC6)CC5)nc34)c2)cc1C(F)(F)F [III-556] | 8.15
COc1ccc(NC(=O)c2ccc(C)c(Nc3ncnc4cnc(N5CCN(C6CCN(C)CC6)CC5)nc34)c2)cc1C(F)(F)F [III-557] | 8.40
COc1ccc(NC(=O)c2ccc(C)c(Nc3ncnc4cnc(N5CCC(N6CCOCC6)CC5)nc34)c2)cc1C(F)(F)F [III-558] | 7.64
COc1ccc(NC(=O)c2ccc(C)c(Nc3ncnc4cnc(N5CCC(N6CCCC6)CC5)nc34)c2)cc1C(F)(F)F [III-560] | 8.15

Structure (SMILES) | pIC50
CCN1CCN(c2ncc3ncnc(Nc4cc(C(=O)Nc5ccc(OC)c(C(F)(F)F)c5)ccc4C)c3n2)CC1 [III-561] | 8.05
COc1ncc2ncnc(Nc3cc(C(=O)Nc4cc(C(C)(C)C)nn4C)ccc3C)c2n1 [III-565] | 7.96
COc1ncc2ncnc(Nc3cc(C(=O)Nc4cc(N5CCN(C(C)C)CC5)cc(C(F)(F)F)c4)ccc3C)c2n1 [III-567] | 8.70
COc1ncc2ncnc(Nc3cc(C(=O)Nc4cccc(C(F)(F)F)c4)ccc3C)c2n1 [III-568] | 9.00
COc1ncc2ncnc(Nc3cc(C(=O)Nc4cccc(C(C)(C)C)c4)ccc3C)c2n1 [III-570] | > 9.00
COc1ncc2ncnc(Nc3cc(C(=O)Nc4cc(CN5CCCC5)cc(C(F)(F)F)c4)ccc3C)c2n1 [III-572] | 9.00
COc1ncc2ncnc(Nc3cc(C(=O)Nc4cc(C(C)(C)C)n[nH]4)ccc3C)c2n1 [III-575] | 8.52
COc1ncc2ncnc(Nc3cc(C(=O)Nc4cc(C(C)(C)C)on4)ccc3C)c2n1 [III-577] | 8.70
Cc1ccc(C(=O)Nc2cc(C(C)(C)C)on2)cc1N(C)c1ncnc2cnc(N3CCOCC3)nc12 [III-580] | 7.55
Cc1ccc(C(=O)Nc2cc(C(C)(C)C)on2)cc1N(C)c1ncnc2cnc(NC3CCOC3)nc12 (stereo not drawn) [III-581] | 7.48
COCCN1CCN(c2ncc3ncnc(N(C)c4cc(C(=O)Nc5cc(C(C)(C)C)on5)ccc4C)c3n2)CC1 [III-582] | 7.13
COc1ccc(NC(=O)c2ccc(C)c(N(C)c3ncnc4cnc(N5CCOCC5)nc34)c2)cc1C(F)(F)F [III-584] | 7.74
COc1ccc(NC(=O)c2ccc(C)c(N(C)c3ncnc4cnc(NC5CCOC5)nc34)c2)cc1C(F)(F)F (stereo not drawn) [III-585] | 7.57
COc1ccc(NC(=O)c2ccc(C)c(N(C)c3ncnc4cnc(N5CC[C@H](F)C5)nc34)c2)cc1C(F)(F)F [III-587] | 7.19
Cc1ccc(C(=O)Nc2cc(C(C)(C)C)on2)cc1Nc1ncnc2cnc(NC3CC(N4CCN(C)CC4)C3)nc12 (stereo not drawn) [III-592] | > 9.00
COc1ccc(NC(=O)c2ccc(C)c(Nc3ncnc4cnc(NC5CC(N6CCN(C)CC6)C5)nc34)c2)cc1C(F)(F)F (stereo not drawn) [III-593] | 9.00
COCCN1CCC(Nc2ncc3ncnc(Nc4cc(C(=O)Nc5cc(C(C)(C)C)on5)ccc4C)c3n2)CC1 [III-594] | 9.00
Cc1ccc(C(=O)Nc2ccnc(C(C)(C)C)c2)cc1Nc1ncnc2cnc(N(C)C3CC(N4CCN(C)CC4)C3)nc12 (stereo not drawn) [III-597] | 8.30
Cc1ccc(C(=O)Nc2cc(C(C)(C)C)on2)cc1Nc1ncnc2cnc(NCCCN(C)C)nc12 [III-598] | > 9.00
COc1ccc(NC(=O)c2ccc(C)c(Nc3ncnc4cnc(N5CCC(CN(C)C)CC5)nc34)c2)cc1C(F)(F)F [III-599] | 9.00
CC1=Nc2ccc(NC(=O)c3ccc(C)c(Nc4ncnc5cnc(N6CCC(CN7CCCC7)CC6)nc45)c3)cc2C1(C)C [III-601] | 8.22
Cc1ccc(C(=O)Nc2cc(C(C)(C)C)n[nH]2)cc1Nc1ncnc2cnc(N3CCN(CC4CCOC4)CC3)nc12 (stereo not drawn) [III-602] | 8.05
Cc1ccc(C(=O)Nc2cc(C(C)(C)C)on2)cc1Nc1ncnc2cnc(N3CCC4(CCN(C)C4)C3)nc12 (stereo not drawn) [III-603] | 9.00
Cc1cn(-c2ncc3ncnc(Nc4cc(C(=O)Nc5cc(C(C)(C)C)n[nH]5)ccc4C)c3n2)cn1 [III-605] | 8.22
